From PMC11592477, “Bioengineering the Human Intestinal Mucosa and the Importance of Stromal Support for Pharmacological Evaluation In Vitro” (Cells, 2024)

Legend:
Caco-2 monolayers = settings: hydrophilic drugs; in words; ref [14]; cited from earlier work
[1] = hydrophilic drugs; in words; ref [14]; cited from earlier work
[2] = tested on: epithelial-only (EO) Caco-2 monolayer constructs; assay: Ussing chamber drug permeability, epithelial-only (EO) constructs; type: in vitro ADME, human
[3] = tested on: full thickness (FT) intestinal constructs (Caco-2 on CCD-18co or HDFn stromal compartment); assay: Ussing chamber drug permeability, full-thickness (FT) intestinal constructs; type: in vitro ADME, human
[4] = tested on: epithelial-only (EO) Caco-2 monolayer constructs; assay: Transepithelial electrical resistance (TEER) of KGF-supplemented EO constructs; type: cell-based, human; settings: with increasing KGF concentration (0.5–25 ng.mL−1)
Aminopeptidase = Aminopeptidase activity assay of KGF-supplemented EO constructs; type: cell-based, human; settings: with increasing KGF concentration (0.5–25 ng.mL−1)
Protocol: (§1) For conditioned medium studies, Caco-2 monolayers were established as above, but after 48 h, the medium was replenished with a 1:1 mix of fresh culture medium and conditioned medium obtained from 80% confluent fibroblast cultures (HDFn or CCD-18co). The conditioned medium was centrifuged to remove cellular debris and sterile filtered before addition to EO cultures. Similarly, KGF-supplemented cultures were seeded in standard conditions and supplemented with a range of concentrations (0.5–25 ng·mL^−1) of KGF following the establishment of cultures for 48 h. Both conditioned and KGF-supplemented media were replenished at each media change: every two days.
Aminopeptidase activity was quantified through the catalyzation of the cleavage of L-slsninr-4-nitroanilide hydrochloride into the breakdown product 4-nitranline. This was achieved through the addition of 0.5 mL of prewarmed 1.5 mM L-analine-4-nitiroanilide hydrochloride solution (Sigma-Aldrich, St. Louis, […], USA) to the apical compartment of bioengineered tissue constructs (both EO and FT). The constructs were incubated for 1 h at 37 °C at 100 rpm using an orbital shaker. Following incubation, 100 μL of the cleavage product-containing solution was sampled from each construct and the absorbance was quantified at 405 nm using a BioTek™ ELx800 (Winooski, VT, USA) plate reader. Enzyme activity was expressed as a function of tissue area.

[5] = tested on: epithelial-only (EO) Caco-2 monolayer constructs; assay: qPCR gene expression in KGF-supplemented EO constructs; type: cell-based, human; settings: with increasing KGF concentration
Protocol: as §1
EO tissue constructs were lysed in RLT buffer (Qiagen, Manchester, UK) and homogenized through repeated aspiration with a 20-gauge needle. […] The mRNA was suspended in molecular-grade water and stored at −80 °C prior to analysis. mRNA abundance was quantified using a Nanodrop Spectrophotometer […] and 200 ng was reverse-transcribed using the GoScript™ Reverse Transcriptase kit (Promega, Hampshire, UK), as per the manufacturer’s instructions. […] Data were analyzed through normalization to the housekeeping reference genes (GAPDH) using the ΔΔCt method and the fold change was averaged after this normalization.

villin = assay: Immunofluorescence of villin in KGF-supplemented EO constructs; type: cell-based, human; settings: with KGF concentration up to 5–25 ng.mL−1
Protocol: as §1
Wax sections were prepared for staining by de-paraffinization in Histo-Clear followed by rehydration from 100% ethanol to PBS. Antigen retrieval was performed in citrate buffer (pH 6, Sigma-Aldrich) at 95 °C for 20 min. Alternatively, EO constructs were prepared through fixation in a 1:1 ice-cold solution of methanol (Sigma-Aldrich) and acetone (Sigma-Aldrich) for 10 min at −20 °C. From this point onwards whole EO constructs and mounted tissue sections were stained in the same manner.
The samples were blocked for 1 h at room temperature in a solution consisting of 10% normal goat serum ([…], Sigma-Aldrich) and 0.1% […] (Sigma-Aldrich) in PBS. […]

MDR1 = MDR1 (Homo sapiens, UniProt P08183); assay: MDR1-mediated Rhodamine 123 transport in EO constructs (Ussing chamber); settings: EO constructs supplemented with KGF 0.5–25 ng.mL−1, absence of verapamil
MDR1, sequence (P08183 whole entry): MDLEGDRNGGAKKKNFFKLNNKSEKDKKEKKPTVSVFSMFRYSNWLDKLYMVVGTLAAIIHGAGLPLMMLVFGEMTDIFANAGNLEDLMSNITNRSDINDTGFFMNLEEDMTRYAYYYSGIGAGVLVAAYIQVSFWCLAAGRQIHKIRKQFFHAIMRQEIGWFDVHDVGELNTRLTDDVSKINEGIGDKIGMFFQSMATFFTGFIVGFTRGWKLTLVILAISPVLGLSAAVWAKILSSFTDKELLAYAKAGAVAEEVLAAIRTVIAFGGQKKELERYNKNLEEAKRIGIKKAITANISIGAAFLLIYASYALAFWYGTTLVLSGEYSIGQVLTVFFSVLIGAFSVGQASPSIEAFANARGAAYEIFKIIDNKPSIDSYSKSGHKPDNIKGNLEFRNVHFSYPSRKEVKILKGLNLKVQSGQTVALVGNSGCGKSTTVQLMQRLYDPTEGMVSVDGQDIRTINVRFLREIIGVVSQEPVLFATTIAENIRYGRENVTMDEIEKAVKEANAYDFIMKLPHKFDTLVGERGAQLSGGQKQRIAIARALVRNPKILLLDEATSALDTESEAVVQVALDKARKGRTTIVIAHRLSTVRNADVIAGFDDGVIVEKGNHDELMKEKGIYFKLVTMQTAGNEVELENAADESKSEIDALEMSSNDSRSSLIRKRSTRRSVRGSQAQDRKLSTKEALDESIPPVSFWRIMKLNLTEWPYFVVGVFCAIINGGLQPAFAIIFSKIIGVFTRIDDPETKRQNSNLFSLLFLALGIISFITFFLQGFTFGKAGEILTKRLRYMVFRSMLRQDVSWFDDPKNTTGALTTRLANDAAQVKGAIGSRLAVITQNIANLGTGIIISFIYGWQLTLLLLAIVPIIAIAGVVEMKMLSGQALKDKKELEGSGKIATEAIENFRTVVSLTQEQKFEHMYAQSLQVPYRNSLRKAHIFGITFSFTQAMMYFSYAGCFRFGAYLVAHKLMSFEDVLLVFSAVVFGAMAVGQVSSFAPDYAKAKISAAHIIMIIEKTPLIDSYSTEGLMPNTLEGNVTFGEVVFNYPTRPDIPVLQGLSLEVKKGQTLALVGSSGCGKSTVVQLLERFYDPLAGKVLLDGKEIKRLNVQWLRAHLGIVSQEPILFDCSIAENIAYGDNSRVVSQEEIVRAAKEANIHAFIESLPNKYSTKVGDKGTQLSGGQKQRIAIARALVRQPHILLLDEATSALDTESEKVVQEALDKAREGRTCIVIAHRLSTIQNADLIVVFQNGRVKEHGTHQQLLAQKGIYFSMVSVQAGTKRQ

[6] = FT constructs on intestinal and dermal fibroblast foundation compared with Caco-2 monolayer EO, 100 μM

CC1=C(C(=O)O)N2C(=O)[C@@H](NC(=O)[C@H](N)c3ccc(O)cc3)[C@H]2SC1 [cefadroxil]
Caco-2 permeability in vitro (Caco-2 monolayers): low
absorption in vivo [1]: high

Cc1cn([C@H]2C[C@H](N=[N+]=[N-])[C@@H](CO)O2)c(=O)[nH]c1=O [zidovudine]
Caco-2 permeability in vitro (Caco-2 monolayers): low
absorption in vivo [1]: high

Lucifer yellow
permeability (Papp), basal-apical ([2]; EO constructs in intestinal fibroblast-conditioned medium vs control, not significant, 100 μM): slight increase
permeability (Papp), apical-basal [3, 6]: significantly increased
permeability (Papp), basal-apical [3, 6]: significantly increased

COC(=O)c1ccccc1-c1c2ccc(=N)cc-2oc2cc(N)ccc12 [Rhodamine 123]
apparent permeability (Papp), basal-apical ([2]; EO constructs in dermal fibroblast conditioned medium vs control, 5 μM, 120 min): enhanced
apparent permeability (Papp), apical-basal ([2]; EO constructs in medium conditioned by intestinal and dermal fibroblasts vs control medium, 5 μM, 120 min): increased
apparent permeability (Papp), basal-apical ([3]; FT constructs on intestinal fibroblast foundation compared with dermal fibroblast counterpart, absence of verapamil, 5 μM): significantly increased
apparent permeability (Papp), apical-basal ([3]; FT constructs on intestinal vs dermal fibroblast foundation, regardless of verapamil, 5 μM): no significant difference

CN(Cc1cnc2nc(N)nc(N)c2n1)c1ccc(C(=O)N[C@@H](CCC(=O)O)C(=O)O)cc1 [methotrexate]
Papp, basal-apical transport (BCRP-mediated) ([2]; EO constructs in intestinal fibroblast conditioned medium, 10 μM): modestly enhanced
Papp, apical-basal transport (RFC1 and PCFT) ([3]; FT co-culture constructs only, to a greater degree with dermal fibroblasts, 10 μM): increased
Papp, basal-apical transport (BCRP-mediated) ([3]; FT constructs with dermal fibroblast-based stromal foundation, 10 μM): increased to the greatest extent

N[C@@H](C(=O)N[C@@H]1C(=O)N2C(C(=O)O)=C(Cl)CC[C@H]12)c1ccccc1 [loracarbef]
Caco-2 permeability in vitro (Caco-2 monolayers): low
absorption in vivo [1]: high

CC(C)C[C@H](CN)CC(=O)O [pregabalin]
Caco-2 permeability in vitro (Caco-2 monolayers): low
absorption in vivo [1]: high

CC1(C)S[C@@H]2[C@H](NC(=O)[C@H](N)c3ccc(O)cc3)C(=O)N2[C@H]1C(=O)O [amoxicillin]
Caco-2 permeability in vitro (Caco-2 monolayers): low
absorption in vivo [1]: high

B1: keratinocyte growth factor (protein, UniProt P21781 32-194, looked up)
Fibroblast growth factor 7: CNDMTPEQMATNVNCSSPERHTRSYDYMEGGDIRVRRLFCRTQWYLRIDKRGKVKGTQEMKNNYNIMEIRTVAVGIVAIKGVESEFYLAMNKEGKLYAKKECNEDCNFKELILENHYNTYASAKWTHNGGEMFVALNQKGIPVRGKKTKKEQKTAHFLPMAIT
notes: keratinocyte growth factor, soluble mediator secreted by fibroblasts, added exogenously to EO constructs
TEER [4]: decreased
aminopeptidase activity (Aminopeptidase): increased
occludin gene expression (qPCR) [5]: decreased
villin gene expression (qPCR) [5]: increased
immunofluorescent detection of villin (villin): increases
effect on basal-apical transport of Rhodamine 123 (MDR1): increased
